Values joined by “and” are separate entries in the source; they are usually repeats but may differ in a detail not shown here. Equal values may be shown once.
Columns and labels:
embryos from maize ears [1] = experiment: Potting and transplant rate, co-treatment with metcamifen and thiamethoxam during colchicine doubling; assay type: in vivo
Description: (§1) As used herein, the term “potted rate” or “potting rate” refers to the percent of germinated embryos successfully transferred to soil from total treated haploid embryos. The “potted rate” is used as an indication of plant health in monitoring the success of recovery and growth after treatment of haploids. As used herein, the term “transplant rate” refers to the survival of healthy plants after embryos were germinated and transferred to soil.
(§2) To assess the impact of the safener and vigor enhancing compounds on the full DH production pipeline, experiments were designed and conducted spanning haploid embryo isolation, doubling treatment, germination, potting, growth to maturity, selfing, and seed set evaluation. Embryos from maize ears of two genotypes were isolated and co-treated with both metcamifen and thiamethoxam during the colchicine doubling treatment, in triplicate. Metcamifen was added in the Murashige and Skoog Medium (MS medium) at concentrations ranging from 400 to 800 mg/L in combination with TMX at concentrations ranging from 4000 to 6000 mg/L. Control co-treatments with metcamifen alone, TMX alone, or colchine-only were run in parallel. Concentrations for co-treatments were selected based on best outcomes from experiments in Examples 1-8. The co-treatments incubated for 24 and 48 hours at 28° C. with 150 PAR light. Resulting embryos were germinated and the percentage of embryos successfully transferred to soil was measured as the potting rate. The survival of healthy plants was measured as the transplant rate.

embryos from maize ears [2] = experiment: Ear kernel setting rates and DH yield after co-treatment with metcamifen and thiamethoxam; assay type: in vivo; conditions: for Ears >4 Rate Mean / Ears >49 Rate Mean: co-treatment with colchicine
Experimental: as §2, with “transplant rate. […]” for “transplant rate.”
One way of measuring the success of DH production is a ratio of output:input, defined as “DH yield”, where a larger ratio is typically desirable for a more efficient production system. In this study, we measured this in two ways: DH ears/total haploid embryos and DH ears/transplants (see Table 15).

GST27 = GST27 induction, metcamifen and thiamethoxam co-treatment in liquid medium; assay type: cell-based, maize
Experimental: For the examples below, GST27 was used as a quick indicator for treatment effectiveness.
(§3) Isolated embryos were placed in a Petri dish on filter paper wetted with liquid Murashige and Skoog Medium (MS medium) containing colchicine and a formulation of metcamifen at 800 mg/L, TMX at 4000 mg/L, or a combination of 800 mg/L metcamifen and 4000 mg/L TMX. The colchicine treatment control used the same conditions except with a medium containing 3.5 g/L Gelzan as compared to the liquid medium without Gelzan. The co-treatments incubated for 24 or 48 hours at 28° C. with 150 PAR light and were conducted on 2 genotypes with 2 replicates. The effects on GST expression, potting rate, and transplant rate are reported (see Table 16). The rate of diploid escapes observed increased to 6.4-8.5% in the 24-hour co-treatments with 4000 mg/L TMX and 4000 mg/L TMX combined with 800 mg/L metcamifen. In all other co-treatments, the escape rate was 0%. […] The best transplant rates observed were in the 24-hour duration 4000 mg/L TMX co-treatment (90%) compared to the control (72%).
(§4) In a separate experiment, additional concentrations of metcamifen and TMX co-treatment were tested in liquid co-treatments. The experimental setup was the same as described above for the data in Table 16, but the co-treatment concentrations were varied. […] The decreased concentrations were associated with lower rates of escapes in the 24-hour co-treatments, only the metcamifen with TMX combination co-treatment produced escapes (1.8%). Potting and transplant rates remained high, with the best performance in the 24-hour metcamifen with TMX combination co-treatment (96% potting, and 87% transplant) compared to the colchicine-only control (60% potting, and 47% transplant) (see Table 17). In all liquid media co-treatments, higher rates of bacterial and/or fungal contamination were observed. In total, 35% of the attempted experiments were discarded due to contamination issues and excluded from the data analysis.

isolated embryos = experiment: Potting and transplant rate, metcamifen and thiamethoxam co-treatment in liquid medium; assay type: in vivo, maize
Description: as §1, §3, §4

[3] = Table 16, liquid medium: TMX 4000 mg/L, 24 Hour
[4] = Table 16, liquid medium: TMX 4000 mg/L, 48 Hour
[5] = Table 17, liquid medium: TMX 4000 mg/L, 24 Hour
[6] = Table 17, liquid medium: TMX 6000 mg/L, 48 Hour
[7] = Table 16, liquid medium: metcamifen 800 mg/L, 24 Hour
[8] = Table 16, liquid medium: metcamifen 800 mg/L, 48 Hour
[9] = Table 17, liquid medium: metcamifen 800 mg/L, 24 Hour
[10] = Table 17, liquid medium: metcamifen 800 mg/L, 48 Hour

## CN1COCN(Cc2cnc(Cl)s2)/C1=N\[N+](=O)[O-] [TMX, thiamethoxam]
Embryos from maize ears [1]; TMX 4000 mg/L, 48 hours
  Potted Rate Mean: 79%
  Transplant Rate Mean: 77%
Embryos from maize ears [1]; TMX 6000 mg/L, 24 hours
  Potted Rate Mean: 95%
  Transplant Rate Mean: 93%
Embryos from maize ears [2]; TMX 4000 mg/L, 48 hours
  Ears >4 DH Yield, DH Ears/Total Haploids, Mean: 0.29
  Ears >4 DH Yield, DH Ears/Transplants, Mean: 0.37
  Ears >49 DH Yield, DH Ears/Total Haploids, Mean: 0.12
  Ears >49 DH Yield, DH Ears/Transplants, Mean: 0.16
  Ears >4 Rate Mean: 30%
  Ears >49 Rate Mean: 13%
Embryos from maize ears [2]; TMX 6000 mg/L, 24 hours
  Ears >4 DH Yield, DH Ears/Transplants, Mean: 0.44
  Ears >49 DH Yield, DH Ears/Total Haploids, Mean: 0.20
  Ears >49 DH Yield, DH Ears/Transplants, Mean: 0.21
  Ears >4 Rate Mean: 45%
  Ears >49 Rate Mean: 24%
GST27; [3]
  GST27 Induction After: 255 ng/mg TSP
  GST27 Induction Before: 0 ng/mg TSP
GST27; [4]
  GST27 Induction After: 194 ng/mg TSP
  GST27 Induction Before: 1 ng/mg TSP
GST27; [5]
  GST27 Induction After: 193 ng/mg TSP
  GST27 Induction Before: 5 ng/mg TSP
GST27; [6]
  GST27 Induction After: 208 ng/mg TSP
  GST27 Induction Before: 13 ng/mg TSP
Isolated embryos; [3]
  Potting Rate Mean: 92.3%
  Transplant Rate Mean: 90% and 89.7%
Isolated embryos; [4]
  Potting Rate Mean: 79.4%
  Transplant Rate Mean: 72.2%
Isolated embryos; [5]
  Potting Rate Mean: 77.3%
  Transplant Rate Mean: 81.3%
Isolated embryos; [6]
  Potting Rate Mean: 58.0%
  Transplant Rate Mean: 54.0%

## CNC(=O)Nc1ccc(S(=O)(=O)NC(=O)c2ccccc2OC)cc1 [Metcamifen, metcamifen]
Embryos from maize ears [1]; metcamifen 800 mg/L, 24 hours
  Potted Rate Mean: 76%
  Transplant Rate Mean: 68%
Embryos from maize ears [1]; metcamifen 800 mg/L, 48 hours
  Potted Rate Mean: 15%
  Transplant Rate Mean: 15%
Embryos from maize ears [2]; metcamifen 800 mg/L, 24 hours
  Ears >4 Rate Mean: 38%
  Ears >49 Rate Mean: 24%
  Ears >4 DH Yield, DH Ears/Total Haploids, Mean: 0.33
  Ears >4 DH Yield, DH Ears/Transplants, Mean: 0.47
  Ears >49 DH Yield, DH Ears/Total Haploids, Mean: 0.21
  Ears >49 DH Yield, DH Ears/Transplants, Mean: 0.30
Embryos from maize ears [2]; metcamifen 800 mg/L, 48 hours
  Ears >4 Rate Mean: 9%
  Ears >49 Rate Mean: 4%
  Ears >4 DH Yield, DH Ears/Total Haploids, Mean: 0.07
  Ears >4 DH Yield, DH Ears/Transplants, Mean: 0.61
  Ears >49 DH Yield, DH Ears/Total Haploids, Mean: 0.03
  Ears >49 DH Yield, DH Ears/Transplants, Mean: 0.25
Embryos from maize ears [2]; metcamifen 800 mg/L, 24 hours, listed as metcamifen
  Ears >4 DH Yield, DH Ears/Total Haploids, Mean: increased significantly
GST27; [7]
  GST27 Induction After: 270 ng/mg TSP
  GST27 Induction Before: 0 ng/mg TSP
GST27; [8]
  GST27 Induction After: 396 ng/mg TSP
  GST27 Induction Before: 0 ng/mg TSP
GST27; [9]
  GST27 Induction After: 263 ng/mg TSP
  GST27 Induction Before: 0 ng/mg TSP
GST27; [10]
  GST27 Induction After: 340 ng/mg TSP
  GST27 Induction Before: 4 ng/mg TSP
Isolated embryos; [7]
  Potting Rate Mean: 92.5%
  Transplant Rate Mean: 88.2%
Isolated embryos; [8]
  Potting Rate Mean: 21.5%
  Transplant Rate Mean: 20.4%
Isolated embryos; [9]
  Potting Rate Mean: 86.2%
  Transplant Rate Mean: 74.1%
Isolated embryos; [10]
  Potting Rate Mean: 9.2%
  Transplant Rate Mean: 9.2%

— patent publication US20260248087A1, “GENERATING DOUBLED HAPLOID PLANTS” (Syngenta Crop Protection AG, priority 2023, published 2026)
